Assay results from ChEMBL document CHEMBL1909046, “DrugMatrix in vitro pharmacology data”.

Experiments:
[1] = DRUGMATRIX: Serotonin (5-Hydroxytryptamine) 5-HT3 radioligand binding (ligand: [3H] GR-65630); assay type: cell membranes, Membrane; details: hek293; Not Active = under 50% inhibition at 10 µM
[2] = biological target: 5-hydroxytryptamine receptor 4 (Cavia porcellus, UniProt O70528); assay type: cell membranes, Dunkin-Hartley, Striatum, Membrane; also: in other assays of this panel Not Active means under 50% inhibition at 10 µM
Substance-P receptor = Substance-P receptor (Homo sapiens, UniProt P25103); assay type: cell membranes, Membrane; details: cho; also: in other assays of this panel Not Active means under 50% inhibition at 10 µM
Cannabinoid receptor 1 = Cannabinoid receptor 1 (Homo sapiens, UniProt P21554); assay type: cell membranes, Chem-1, Membrane; also: in other assays of this panel Not Active means under 50% inhibition at 10 µM
[3] = biological target: Mitogen-activated protein kinase 14 (Homo sapiens, UniProt Q16539); design: species or system Escherichia coli;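 also: inhibition of p38alpha enzyme activity in a biochemical kinase assay, with myelin basic protein serving as substrate; in other assays of this panel Not Active means under 50% inhibition at 10 µM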
Estrogen receptor = biological target: T1, Estrogen receptor (Homo sapiens, UniProt P03372); details: sf9; also: in other assays of this panel Not Active means under 50% inhibition at 10 µM
T1 sequence (P03372 whole entry): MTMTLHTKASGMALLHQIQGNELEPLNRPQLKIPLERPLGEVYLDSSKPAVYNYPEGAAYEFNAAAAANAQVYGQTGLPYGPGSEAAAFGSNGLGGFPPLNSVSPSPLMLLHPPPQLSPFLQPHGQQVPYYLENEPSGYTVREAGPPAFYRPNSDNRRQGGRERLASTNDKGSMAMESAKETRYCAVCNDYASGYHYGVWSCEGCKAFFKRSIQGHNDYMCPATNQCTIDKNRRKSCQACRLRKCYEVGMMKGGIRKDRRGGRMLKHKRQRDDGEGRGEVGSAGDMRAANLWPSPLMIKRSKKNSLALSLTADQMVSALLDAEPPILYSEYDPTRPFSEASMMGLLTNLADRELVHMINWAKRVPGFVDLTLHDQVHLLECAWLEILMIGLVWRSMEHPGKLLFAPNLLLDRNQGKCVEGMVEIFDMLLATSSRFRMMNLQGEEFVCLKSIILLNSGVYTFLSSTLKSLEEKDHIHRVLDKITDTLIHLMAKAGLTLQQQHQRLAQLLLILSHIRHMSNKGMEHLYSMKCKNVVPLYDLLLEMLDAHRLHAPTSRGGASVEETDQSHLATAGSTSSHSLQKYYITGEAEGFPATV

Mitogen-activated protein kinase 14, sequence (Q16539 whole entry): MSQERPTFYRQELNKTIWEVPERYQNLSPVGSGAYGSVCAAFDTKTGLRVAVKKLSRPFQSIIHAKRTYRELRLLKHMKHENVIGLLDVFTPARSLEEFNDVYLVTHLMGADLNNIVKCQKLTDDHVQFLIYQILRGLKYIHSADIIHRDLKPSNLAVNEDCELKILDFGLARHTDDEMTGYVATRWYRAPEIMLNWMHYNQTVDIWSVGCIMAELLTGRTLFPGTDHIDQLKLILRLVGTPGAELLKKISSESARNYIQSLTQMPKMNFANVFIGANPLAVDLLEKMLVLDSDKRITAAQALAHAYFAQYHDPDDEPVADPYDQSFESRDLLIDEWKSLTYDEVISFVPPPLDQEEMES
Cannabinoid receptor 1, sequence (P21554 whole entry): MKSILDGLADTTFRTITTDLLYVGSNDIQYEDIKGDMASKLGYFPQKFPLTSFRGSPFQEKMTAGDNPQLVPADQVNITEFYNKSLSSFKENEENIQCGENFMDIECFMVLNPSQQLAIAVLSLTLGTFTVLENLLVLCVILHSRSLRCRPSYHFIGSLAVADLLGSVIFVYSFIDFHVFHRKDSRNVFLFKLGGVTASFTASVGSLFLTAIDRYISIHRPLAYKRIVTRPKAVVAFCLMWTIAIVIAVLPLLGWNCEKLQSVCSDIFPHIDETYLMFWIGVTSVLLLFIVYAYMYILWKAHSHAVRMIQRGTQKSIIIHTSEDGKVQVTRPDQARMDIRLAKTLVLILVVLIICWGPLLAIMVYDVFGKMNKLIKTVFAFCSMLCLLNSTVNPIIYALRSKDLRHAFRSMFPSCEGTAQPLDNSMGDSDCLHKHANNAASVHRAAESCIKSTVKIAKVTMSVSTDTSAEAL
5-hydroxytryptamine receptor 4, sequence (O70528 whole entry): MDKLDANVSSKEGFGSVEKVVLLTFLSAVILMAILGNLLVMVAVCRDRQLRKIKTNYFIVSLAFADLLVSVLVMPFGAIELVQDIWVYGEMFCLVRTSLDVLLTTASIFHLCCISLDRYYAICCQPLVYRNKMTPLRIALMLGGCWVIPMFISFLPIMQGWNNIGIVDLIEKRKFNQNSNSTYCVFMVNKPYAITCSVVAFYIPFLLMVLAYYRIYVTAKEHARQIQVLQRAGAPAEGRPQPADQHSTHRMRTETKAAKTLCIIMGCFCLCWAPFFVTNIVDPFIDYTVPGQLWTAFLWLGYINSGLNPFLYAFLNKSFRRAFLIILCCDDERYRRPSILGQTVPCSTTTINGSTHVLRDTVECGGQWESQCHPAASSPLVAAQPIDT
Substance-P receptor, sequence (P25103 whole entry): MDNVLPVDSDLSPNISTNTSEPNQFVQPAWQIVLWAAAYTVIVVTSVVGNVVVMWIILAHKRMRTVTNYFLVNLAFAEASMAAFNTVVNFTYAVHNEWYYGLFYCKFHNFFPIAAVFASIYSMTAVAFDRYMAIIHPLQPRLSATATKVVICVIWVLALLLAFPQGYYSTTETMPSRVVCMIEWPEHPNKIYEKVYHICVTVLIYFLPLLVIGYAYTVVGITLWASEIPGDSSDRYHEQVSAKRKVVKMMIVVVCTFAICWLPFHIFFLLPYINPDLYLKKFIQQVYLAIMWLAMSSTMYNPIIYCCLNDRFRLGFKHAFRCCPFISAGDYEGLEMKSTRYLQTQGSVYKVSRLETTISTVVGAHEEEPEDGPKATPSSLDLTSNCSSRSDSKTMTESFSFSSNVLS

Molecule	IC50 [1]	Ki [1]	IC50 [2]	IC50 (Substance-P receptor)	IC50 (Cannabinoid receptor 1; chem-1)	IC50 [3]	IC50 (Estrogen receptor)	Ki [2]	Ki (Substance-P receptor)	Ki (Cannabinoid receptor 1; chem-1)	Ki [3]	Ki (Estrogen receptor)	IC50 (Cannabinoid receptor 1; read-out: IC50)	Ki (Cannabinoid receptor 1; read-out: Ki)	IC50 ([3]; read-out: IC50)
OC[C@H]1O[C@@H]2O[C@H]3[C@H](O)[C@@H](O)[C@@H](O[C@H]4[C@H](O)[C@@H](O)[C@@H](O[C@H]5[C@H](O)[C@@H](O)[C@@H](O[C@H]6[C@H](O)[C@@H](O)[C@@H](O[C@H]7[C@H](O)[C@@H](O)[C@@H](O[C@H]1[C@H](O)[C@H]2O)O[C@@H]7CO)O[C@@H]6CO)O[C@@H]5CO)O[C@@H]4CO)O[C@@H]3CO [ALFADEX]	Not Active	Not Active	Not Active	Not Active	Not Active	Not Active	Not Active								
POVIDONE	Not Active	Not Active	Not Active	Not Active	Not Active	Not Active	Not Active	Not Active	Not Active	Not Active	Not Active	Not Active			
c1ccc2c(c1)Nc1ccccc1S2 [PHENOTHIAZINE]	Not Active	Not Active	Not Active	Not Active		Not Active	Not Active						24.9 µM	19.6 µM	
NS(=O)(=O)c1cc(C(=O)O)c(NCc2ccco2)cc1Cl [FUROSEMIDE]	Not Active	Not Active	Not Active	Not Active	Not Active	Not Active	Not Active								
CC(N)Cc1c[nH]c2ccc(OCc3cccs3)cc12 (stereo unspecified) [BW-723C86]	Not Active	Not Active	Not Active	Not Active	Not Active	Not Active	Not Active								
O=C(O)COC(=O)Cc1ccccc1Nc1c(Cl)cccc1Cl [ACECLOFENAC]	Not Active	Not Active	Not Active	Not Active	Not Active	Not Active	Not Active								
Cc1c(N)nc([C@H](CC(N)=O)NC[C@H](N)C(N)=O)nc1C(=O)N[C@H](C(=O)N[C@H](C)[C@@H](O)[C@H](C)C(=O)N[C@H](C(=O)NCCc1nc(-c2nc(C(=O)NCCC[S+](C)C)cs2)cs1)[C@@H](C)O)[C@@H](O[C@@H]1O[C@@H](CO)[C@@H](O)[C@H](O)[C@@H]1O[C@H]1O[C@H](CO)[C@@H](O)[C@H](OC(N)=O)[C@@H]1O)c1c[nH]cn1.[Br-] [BLEOMYCIN A2]	Not Active	Not Active	Not Active	Not Active	Not Active	Not Active	Not Active								
COc1cc(NC(C)CCCN)c2ncccc2c1 (stereo unspecified) [PRIMAQUINE]	Not Active	Not Active	Not Active	Not Active	Not Active	Not Active	Not Active								
Cc1cc(C(C)(C)C)c(O)c(C)c1CC1=NCCN1 [OXYMETAZOLINE]	Not Active	Not Active	Not Active	Not Active	Not Active	Not Active	Not Active								
O=c1[nH]c2ccccc2c2ccccc12	Not Active	Not Active	Not Active	Not Active	Not Active	Not Active	Not Active								
C=C(Cl)Cl [1,1-DICHLOROETHENE]	Not Active	Not Active	Not Active	Not Active	Not Active	Not Active	Not Active								
CC(=O)[C@]1(O)Cc2c(O)c3c(c(O)c2[C@@H](O[C@H]2C[C@H](N)[C@H](O)[C@H](C)O2)C1)C(=O)c1ccccc1C3=O [IDARUBICIN]	Not Active	Not Active	Not Active	Not Active	Not Active	Not Active	Not Active								
O=C(Nc1ccc(Cl)c(Cl)c1)c1cc(Cl)cc(Cl)c1O [3,3',4',5-TETRACHLOROSALICYLANILIDE]	Not Active	Not Active	Not Active	Not Active	Not Active		Not Active								2180 nM
CC(=O)Nc1ccc2c(c1)Cc1ccccc1-2 [2-ACETYLAMINOFLUORENE]	Not Active	Not Active	Not Active	Not Active	Not Active	Not Active	Not Active								
Oc1ncnc2[nH]ncc12 [ALLOPURINOL]	Not Active	Not Active	Not Active	Not Active	Not Active	Not Active	Not Active								
